Assay results published in patent publication US10800806B2, “Sterol derivatives and use thereof for treating diseases involving transformed astrocyte cells or for treating malignant haemopathies” (BETA INNOV, priority 2012, dated 2020).

Legend:
[1] = test system: normal (non-cancerous) human astrocytes; experiment: Toxicity in vitro on primary cultures of normal human astrocytes; assay type: cell-based; conditions: 30 μM, after 30 days of treatment
Protocol: The astrocyte cells of human origin used were obtained from ScienCell, USA (ref. 1800) as well as their culture medium, made up of basic medium containing 2% (v/v) FCS serum (ref. 0010), astrocyte growth proteins (AGS, ref. 1852) and a solution of penicillin/streptomycin (ref. 0503). The doubling time of these human astrocytes is 96 h. • Hepatic cells
(§1) The same methods are used for both cases. For the activity, the anti-GBM potential of the test compounds is used, and the toxicity, is tested on normal cells of human origin maintained “in vitro”.
The cells used are cells of human origin (ScienCell, USA, ref. 1800), mentioned above (section II, A).
The astrocyte type is validated by the presence of GFAP, the standard marker of normal astrocytes (FIG. 11; magnification×200).

[2] = test system: cardiac cells; experiment: Toxicity in vitro on primary cultures of cardiac cells; assay type: cell-based, human; conditions: 30 μM, at least 30 days of treatment
Protocol: These cells, of human origin, were obtained from ScienCell, USA (ref. 6300) as was the culture medium, which contains 10% (v/v) FCS. The doubling time is 72 h. • Skeletal muscle cells
as §1
(§2) The cells used are liver cells (ScienCell, USA, ref. 50200), kidney cells (ScienCell, USA, ref. 4120), skeletal muscle cells (ScienCell, USA, ref. 3500) and cardiac cells (ScienCell, USA, ref. 6300), of human origin, mentioned above (section II, A).

[3] = test system: human glioblastoma lines (GBM, line U-87 MG); experiment: Anti-GBM activity in vitro on cultures of human U87-MG cells, cell aggregates (CA); assay type: cell-based
Protocol: Plastic flat-bottomed 96-well culture plates (NUNC, USA) treated for cell culture (Sigma-Aldrich, ref. 114754) are used; 1500 cells are seeded per well in 200 μl of culture medium. At the time of treatment, 100 μl of pure culture medium, 100 μl of culture medium containing ethanol, or liposomes, or 100 μl of culture medium containing the active ingredients are added per well; the final volume of the culture medium, after treatment, is therefore 300 μl for all the wells.
The human glioblastoma lines (GBM, line U-87 MG) and their culture medium (Eagle's Minimum Essential Medium or EMEM) were obtained from ATCC (USA, ref. ATCC-HTB-14). Culture of the cells is started and maintained according to the recommendations of the ATCC. These lines are commonly used “in vitro” and “in vivo” for testing anti-GBM potential. The doubling time of these lines is 16 h.
The active ingredients are either dissolved in absolute ethanol (AnalaR, NORMAPUR, VWR, France) or in the form of a liposomal solution, such as 10 μl of the stock solutions diluted in 990 μl and then added to the culture wells ([…] medium per well BI-GBM: 300 μl).
When the active ingredients are in ethanolic solution, the culture medium contains […] ethanol (v/v).
Briefly, the compounds to be tested, namely the compounds according to the invention (active ingredients) or 7β-OHCH—C3-ester (a derivative of 7beta-hydroxysterol esterified in position 3 with an oleate group, the synthesis of which is described by Rakotoarivelo et al. (18) and used as control), soya phosphatidylcholine (Sigma) as well as cholesteryl-3-sulphate (Sigma) are taken from their stock solutions prepared from dichloroethane in the case of the active ingredients and the 7β-OHCH—C3-ester, a chloroform:methanol mixture (9:1, v/v) in the case of phosphatidylcholine and chloroform in the case of cholesteryl-3-sulphate. The molar ratios are 1 M/0.1 M/0.25 M for phosphatidylcholine, cholesteryl-3-sulphate and the 7β-OHCH—C3-ester and the active ingredients respectively.
After evaporation, a solution of PBS saline, without Ca^2+ and Mg^2+, pH7.2 (BioRad) is added to the dry compound. The volume of buffer and the mass of the products are adjusted so that 20 or 10 μl of liposomes added to 90 μl of culture medium gives the desired final concentrations. The liposomes are formed by the extrusion technique with Liposofast (Sodexim, SA Muizon, France). The solution is passed through polycarbonate filtration membranes (100 nm) 41 times. The liposomes are sterilized by filtration on […] Millipore membranes.
For example, in the case of the cultures in 96-well plates and as a function of the magnification of the microscope used (objectives×10 or ×20, oculars×10), a photograph taken represents a field of view with a diameter equal to 1/5 of the diameter of a well. Therefore the total number of cells in a well is equal to […] the number of cells per photograph. This technique was compared with a standard technique (trypsinization of the cell layer, centrifugation of the cells, suspension of the cells in physiological saline solution and counting with a THOMA cell) in the case of the C6 cells. The results obtained are identical for both methods.
The culture medium is withdrawn from each well and 50 μl of Laemmli buffer (0.1 ml of Tris, 0.8 ml of glycerol, 1.6 mL of 10% SDS, 8 ml q.s.f ultrapure water) is added per well.
This test makes it possible to detect the cellular respiration, especially the mitochondrial respiration. The stock solution of tetrazolium salt MTT (3-(4,5-dimethylthiazol-2-yl)-2,5-diphenyl tetrazolium bromide, Sigma-Aldrich, USA, ref. M5655) is prepared with 10 mg of MIT/ml of PBS buffer (phosphate-buffered saline, SIGMA, ref. D 1408). This solution is added directly to the culture medium in each well; the final concentration of MTT is 25 μg/ml. The plate is then incubated at 37° C. for at least 1 h. […]

[4] = test system: liver cells; experiment: Toxicity in vitro on primary cultures of liver cells; assay type: cell-based, human; conditions: 30 μM, at least 30 days of treatment
Protocol: Of human origin, they were obtained from ScienCell, USA (ref. 50200) as was the culture medium (ref. 5201), which contains 10% (v/v) FCS. The doubling time of these cells is 24 h. • Renal cells
as §1, §2

[5] = test system: skeletal muscle cells; experiment: Toxicity in vitro on primary cultures of skeletal muscle cells; assay type: cell-based, human; conditions: 30 μM, at least 30 days of treatment
Protocol: Of human origin, they were obtained from ScienCell, USA (ref. 3500) as was the culture medium (ref. 3501), which contains 10% (v/v) FCS. The doubling time for these cells is 72 h.
as §1, §2

[6] = test system: kidney cells; experiment: Toxicity in vitro on primary cultures of kidney cells; assay type: cell-based, human; conditions: 30 μM, at least 30 days of treatment
Protocol: These cells, of human origin, were obtained from ScienCell, USA (ref. 4120) as was the culture medium (ref. 4101), which contains 10% (v/v) FCS. The doubling time is 96 h. • Cardiac cells
as §1, §2

SMILES | toxicity ([1]; liposomal form) | toxicity ([2]; liposomal form) | presence of GBM cells (CA) ([3]; 15 μM, liposomal form, 15 days of treatment) | cellular respiration before cell death ([3]; liposomal form) | MTT/cell relative to the controls ([3]; liposomal form, 8 days of treatment) [%] | cell multiplication after replacing the medium with fresh drug-free medium ([3]; liposomal form, medium replaced on the 13th day of treatment) | toxicity ([4]; liposomal form) | toxicity ([5]; liposomal form) | toxicity ([6]; liposomal form) | toxicity ([1]; ethanolic form) | toxicity ([2]; ethanolic form) | remaining GBM cells ([3]; 30 μM, ethanolic form, even after removing the active ingredient) | cellular respiration before cell death ([3]; ethanolic form) | reduction of the level of proteins relative to the untreated control cells ([3]; ethanolic form) [%] | cellular multiplication after replacement of the culture medium with fresh drug-free medium ([3]; medium replaced at 22 days) | toxicity ([4]; ethanolic form) | toxicity ([5]; ethanolic form) | toxicity ([6]; ethanolic form)
CC(C)CCCC(C)C1CCC2C3C(OC(=O)OC(C)(C)C)C=C4CC(OC(=O)C5COC(C)(C)O5)CCC4(C)C3CCC12C (stereo not drawn) [Molecule 2.a, 7-((tert-butoxycarbonyl)oxy)-10,13-dimethyl-17-(6-methylheptan-2-yl)-2,3,4,7,8,9,10,11,12,13,14,15,16,17-tetradecahydro-1H-cyclopenta[a]phenanthren-3-yl 2,2-dimethyl-1,3-dioxolane-4-carboxylate] | not toxic | not toxic | zero | cellular respiration increases before cell death | 140 | no cell multiplication is observed | not toxic | not toxic | not toxic |  |  |  |  |  |  |  |  | 
CC(=O)OC1C=C2CC(OC(=O)C3COC(C)(C)O3)CCC2(C)C2CCC3(C)C(C(C)CCCC(C)C)CCC3C12 (stereo not drawn) [Molecule 2.b, 7-acetoxy-10,13-dimethyl-17-(6-methylheptan-2-yl)-2,3,4,7,8,9,10,11,12,13,14,15,16,17-tetradecahydro-1H-cyclopenta[a]phenanthren-3-yl 2,2-dimethyl-1,3-dioxolane-4-carboxylate] |  |  |  |  |  |  |  |  |  | not toxic | not toxic | no GBM cell remains | cellular respiration increases before cell death | 100 | does not lead to any cellular multiplication | not toxic | not toxic | not toxic
